Measurements taken from patent US20050112573A1, “Method of detecting toxic substance” (priority 2001, published 2005).

System: yeast genes (level of expressed mRNA)
Assay: DNA chip analysis of expressed mRNA of yeast genes after 2 h culture with a toxic chemical substance
Type: cell-based, Saccharomyces cerevisiae S288C
How it was run: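 S. cerevisiae S288C grown at 25° C in YPD; toxicant added at log phase at growth-inhibitory, non-lethal levels for 2 h, untreated cells as control. Poly(A) mRNA reverse-transcribed with Cy3/Cy5-dUTP, hybridized to whole-genome chip at 65° C >12 h; value is fluorescence ratio versus untreated.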

sodium dodecylbenzosulfonate [(17)]
level of expressed mRNA in the presence of chemical substance/in its absence (gene YGL104C): 1.3 | level of expressed mRNA in the presence of chemical substance/in its absence (gene YGL126W): 0.9 | level of expressed mRNA in the presence of chemical substance/in its absence (gene YGL134W): 0.9 | level of expressed mRNA in the presence of chemical substance/in its absence (gene YGL154C): 1.0 | The level of expressed mRNA in the presence of chemical substance/absence: YGL183C (gene YGL183C): 1.4 | level of expressed mRNA in the presence of chemical substance/in its absence (gene YGL209W): 1.1 | The level of expressed mRNA in the presence of chemical substance/absence: YGL223C (gene YGL223C): 0.8 | level of expressed mRNA in the presence of chemical substance/in its absence (gene YGL253W): 0.7 | The level of expressed mRNA in the presence of chemical substance/absence: YGR038W (gene YGR038W): 1.1 | level of expressed mRNA in the presence of chemical substance/in its absence (gene YGR060W): 1.3 | The level of expressed mRNA in the presence of chemical substance/absence: YGR139W (gene YGR139W): 1.0 | The level of expressed mRNA in the presence of chemical substance/absence: YGR156W (gene YGR156W): 0.8 | The level of expressed mRNA in the presence of chemical substance/absence: YGR198W (gene YGR198W): 1.1 | The level of expressed mRNA in the presence of chemical substance/absence: YGR210C (gene YGR210C): 1.1 | The level of expressed mRNA in the presence of chemical substance/absence: YGR211W (gene YGR211W): 0.5 | The level of expressed mRNA in the presence of chemical substance/absence: YGR237C (gene YGR237C): 0.9 | The level of expressed mRNA in the presence of chemical substance/absence: YGR243W (gene YGR243W): 2.1 | The level of expressed mRNA in the presence of chemical substance/absence: YGR250C (gene YGR250C): 1.3 | The level of expressed mRNA in the presence of chemical substance/absence: YGR266W (gene YGR266W): 0.7 | The level of expressed mRNA in the presence of chemical substance/absence: YGR277C (gene YGR277C): 1.3 | level of expressed mRNA in the presence of chemical substance/in its absence (gene YGR282C): 1.1 | The level of expressed mRNA in the presence of chemical substance/absence: YGR293C (gene YGR293C): 0.8 | The level of expressed mRNA in the presence of chemical substance/absence: YHL006C (gene YHL006C): 1.1 | The level of expressed mRNA in the presence of chemical substance/absence: YHL021C (gene YHL021C): 1.3 | The level of expressed mRNA in the presence of chemical substance/absence: YHL037C (gene YHL037C): 0.9 | level of expressed mRNA in the presence of chemical substance/in its absence (gene YHR037W): 1.0 | The level of expressed mRNA in the presence of chemical substance/absence: YHR083W (gene YHR083W): 0.8 | level of expressed mRNA in the presence of chemical substance/in its absence (gene YHR092C): 0.9 | The level of expressed mRNA in the presence of chemical substance/absence: YHR095W (gene YHR095W): 0.8 | The level of expressed mRNA in the presence of chemical substance/absence: YHR105W (gene YHR105W): 1.0 | The level of expressed mRNA in the presence of chemical substance/absence: YHR134W (gene YHR134W): 1.3 | level of expressed mRNA in the presence of chemical substance/in its absence (gene YHR137W): 0.8 | The level of expressed mRNA in the presence of chemical substance/absence: YHR180W (gene YHR180W): 0.8 | The level of expressed mRNA in the presence of chemical substance/absence: YHR181W (gene YHR181W): 0.9 | level of expressed mRNA in the presence of chemical substance/in its absence (gene YHR190W): 1.3 | level of expressed mRNA in the presence of chemical substance/in its absence (gene YIL033C): 1.0 | The level of expressed mRNA in the presence of chemical substance/absence: YIL108W (gene YIL108W): 1.2 | The level of expressed mRNA in the presence of chemical substance/absence: YIL127C (gene YIL127C): 0.7 | level of expressed mRNA in the presence of chemical substance/in its absence (gene YIL154C): 1.2 | The level of expressed mRNA in the presence of chemical substance/absence: YIL165C (gene YIL165C): 1.4 | level of expressed mRNA in the presence of chemical substance/in its absence (gene YIL167W): 0.7 | level of expressed mRNA in the presence of chemical substance/in its absence (gene YIR035C): 1.1 | The level of expressed mRNA in the presence of chemical substance/absence: YJL017W (gene YJL017W): 1.0 | The level of expressed mRNA in the presence of chemical substance/absence: YJL032W (gene YJL032W): 1.1 | The level of expressed mRNA in the presence of chemical substance/absence: YJL037W (gene YJL037W): 1.3 | The level of expressed mRNA in the presence of chemical substance/absence: YJL049W (gene YJL049W): 0.9 | level of expressed mRNA in the presence of chemical substance/in its absence (gene YJL088W): 1.4 | The level of expressed mRNA in the presence of chemical substance/absence: YJL097W (gene YJL097W): 1.2 | level of expressed mRNA in the presence of chemical substance/in its absence (gene YJL132W): 1.3 | level of expressed mRNA in the presence of chemical substance/in its absence (gene YJL196C): 0.9 | The level of expressed mRNA in the presence of chemical substance/absence: YJR030C (gene YJR030C): 0.7 | The level of expressed mRNA in the presence of chemical substance/absence: YJR044C (gene YJR044C): 1.8 | level of expressed mRNA in the presence of chemical substance/in its absence (gene YJR142W): 1.2 | level of expressed mRNA in the presence of chemical substance/in its absence (gene YJR148W): 1.3 | level of expressed mRNA in the presence of chemical substance/in its absence (gene YJR159W): 1.7 | The level of expressed mRNA in the presence of chemical substance/absence: YKL051W (gene YKL051W): 1.5 | The level of expressed mRNA in the presence of chemical substance/absence: YKL059C (gene YKL059C): 1.1 | level of expressed mRNA in the presence of chemical substance/in its absence (gene YKL067W): 1.4 | The level of expressed mRNA in the presence of chemical substance/absence: YKL090W (gene YKL090W): 0.7 | The level of expressed mRNA in the presence of chemical substance/absence: YKL094W (gene YKL094W): 1.2 | The level of expressed mRNA in the presence of chemical substance/absence: YKL097C (gene YKL097C): 1.1 | The level of expressed mRNA in the presence of chemical substance/absence: YKL100C (gene YKL100C): 0.7 | level of expressed mRNA in the presence of chemical substance/in its absence (gene YKR039W): 0.9 | The level of expressed mRNA in the presence of chemical substance/absence: YKR040C (gene YKR040C): 0.7 | The level of expressed mRNA in the presence of chemical substance/absence: YLR097C (gene YLR097C): 1.1 | level of expressed mRNA in the presence of chemical substance/in its absence (gene YLR142W): 1.9 | level of expressed mRNA in the presence of chemical substance/in its absence (gene YLR180W): 0.8 | The level of expressed mRNA in the presence of chemical substance/absence: YLR226W (gene YLR226W): 1.1 | level of expressed mRNA in the presence of chemical substance/in its absence (gene YLR273C): 1.0 | level of expressed mRNA in the presence of chemical substance/in its absence (gene YLR300W): 0.7 | level of expressed mRNA in the presence of chemical substance/in its absence (gene YLR307W): 1.1 | The level of expressed mRNA in the presence of chemical substance/absence: YLR338W (gene YLR338W): 0.8 | The level of expressed mRNA in the presence of chemical substance/absence: YLR339C (gene YLR339C): 0.7 | The level of expressed mRNA in the presence of chemical substance/absence: YLR392C (gene YLR392C): 0.8 | The level of expressed mRNA in the presence of chemical substance/absence: YLR415C (gene YLR415C): 0.8 | The level of expressed mRNA in the presence of chemical substance/absence: YLR427W (gene YLR427W): 1.0 | The level of expressed mRNA in the presence of chemical substance/absence: YML013W (gene YML013W): 1.1 | The level of expressed mRNA in the presence of chemical substance/absence: YML029W (gene YML029W): 1.2 | The level of expressed mRNA in the presence of chemical substance/absence: YML041C (gene YML041C): 1.3 | The level of expressed mRNA in the presence of chemical substance/absence: YML079W (gene YML079W): 1.4 | level of expressed mRNA in the presence of chemical substance/in its absence (gene YML110C): 1.1 | The level of expressed mRNA in the presence of chemical substance/absence: YML118W (gene YML118W): 1.5 | The level of expressed mRNA in the presence of chemical substance/absence: YMR068W (gene YMR068W): 1.3 | The level of expressed mRNA in the presence of chemical substance/absence: YMR071C (gene YMR071C): 1.2 | level of expressed mRNA in the presence of chemical substance/in its absence (gene YMR105C): 1.6 | The level of expressed mRNA in the presence of chemical substance/absence: YMR114C (gene YMR114C): 1.0 | The level of expressed mRNA in the presence of chemical substance/absence: YMR115W (gene YMR115W): 1.0 | The level of expressed mRNA in the presence of chemical substance/absence: YMR160W (gene YMR160W): 0.9 | level of expressed mRNA in the presence of chemical substance/in its absence (gene YMR189W): 1.0 | The level of expressed mRNA in the presence of chemical substance/absence: YMR258C (gene YMR258C): 1.1 | level of expressed mRNA in the presence of chemical substance/in its absence (gene YMR271C): 1.3 | level of expressed mRNA in the presence of chemical substance/in its absence (gene YMR272C): 1.3 | level of expressed mRNA in the presence of chemical substance/in its absence (gene YMR296C): 0.8 | level of expressed mRNA in the presence of chemical substance/in its absence (gene YNL012W): 1.3 | The level of expressed mRNA in the presence of chemical substance/absence: YNL026W (gene YNL026W): 1.0
